Patent US9744137B2, “Topiramate compositions and methods of enhancing its bioavailability” (Supernus Pharmaceuticals, Inc., priority 2006, dated 2017)
Read-outs that look alike come from different tables or passages of the source.

Experiments:
patients with epilepsy = conditions: cited from earlier work; for time leading up to the first seizure (median seizure-free duration): monotherapy
[1] = cited from earlier work
[2] = cited from earlier work; remark: listed apart in the source
[3] = Degradation of topiramate in 0.1 N HCl (simulated gastric fluid) at 37° C., HPLC-ELSD; format: physicochemical; conditions: drug substance, 24 hours of incubation in 0.1 N HCl at 37° C.
Experimental: Degradation of topiramate was detected during a dissolution profile of Topamax® tablets in simulated gastric fluid (i.e., 0.1 N HCl). […] Topiramate analysis was carried out using HPLC equipped with Evaporative Laser Light Scattering Detector at 92° C. Separation was achieved using a C-8 reversed-phase column under isocratic conditions of 50% acetonitrile in water. The samples were kept at 4° C. throughout the analysis. Prior to sample injection, the system was equilibrated for 1 hr and subjected to a system suitability test. Linearity was evaluated by linearity curve with power fit. The samples were injected in duplicate and degradation was calculated using the sample area linearity slope and power.

## CC1(C)OC2[C@@H](CO[C@@]3(COS(N)(=O)=O)OC(C)(C)O[C@@H]23)O1 (stereo partly drawn) [topiramate, 2,3:4,5-Di-O-isopropylidene-beta-D-fructopyranose sulfamate]
Patients with epilepsy; 9 patients who became seizure-free
  plasma topiramate concentration: 5.3 ± 2.6 µg/mL
Patients with epilepsy; 215 patients with partial epilepsy, serum concentrations <1.8 mg/L
  time leading up to the first seizure (median seizure-free duration): 84 days
Patients with epilepsy; serum concentrations above 9.9 mg/L
  time leading up to the first seizure (median seizure-free duration): 451 days
Patients with epilepsy; serum concentrations between 1.8 and 9.9 mg/L
  time leading up to the first seizure (median seizure-free duration): 194 days
Patients with epilepsy; positive responders
  mean topiramate plasma concentration: around 7 μg/mL
Patients with epilepsy; seizure-free patients
  mean topiramate plasma concentration: ~9 µg/mL
[1]; in vivo
  effect of food on pharmacokinetics: not significantly affected by food
  mean elimination half life: about 21 hours
[1]; oral administration of an immediate release dosage form
  time to peak plasma drug concentrations: approximately 2 hours
[2]; migraine prophylaxis
  plasma levels at steady state: 1200 to 4400 ng/mL
[2]; pediatric migraine study, daily dose 84.0+/−38.6 mg/day
  mean serum level: 2800 ± 1600 ng/mL
[3]
  topiramate degraded: approximately 70%
